Patent US8658188B2, “Radio-opaque bioactive glass materials” (Universitat Zurich, priority 2009, dated 2014)

Experiment: Radiopacity assessment against an aluminum step wedge
Assay type: physicochemical
Settings: paste in 0.9 wt % NaCl saline, 60% weight to volume, 1 mm thick, X-ray 65 kV, n=3
Source text: According to Waltimo et al., 2009, J Dent Res, 88, 235-8, the amount of bioactive particles per volume plays an important role in the closed environment of a root canal. To achieve a denser packing of the naturally relatively light nanomaterial (low-density powder with snow-like behaviour), uniaxial pressure of 2.6 MPa was applied for 30 seconds. […] The thus improved filler was compared to classical (flame derived) bioactive particles (no bismuth), to mechanical mixtures of bioactive particles and barium sulphate (50/wt %) and bismuth oxide (80/20 wt %; 50/50 wt %). Calcium hydroxide with or without additional barium sulphate was used as commercially available control material. Bovine dentine slices with a thickness of 1 mm served as control for the clear distinction between material and the surrounding tissue in clinical situations. Prior to use, the corresponding powder was homogeneously mixed with unbuffered physiological saline (0.9 wt % NaCl) to obtain a final weight to volume ratio of 60% (plastic limit, i.e. the maximum amount of powder per liquid to yield a paste-like suspension). A radiograph was taken after preparing the paste and placing it in a polycarbonate mould (10 mm diameter, 1 mm thick). Specimens were placed on a radio-graphic film (Digora, Finland) together with an aluminum step-wedge with a variable thickness from 0.5 mm to 6 mm (0.5 mm and 1 mm increments). […]

[Ca+2].[OH-].[OH-] [calcium hydroxide, Calcium hydroxide]
aluminum equivalent (radiopacity): 0.6 mm
